Assay [1] has as its system bumblebee Bombus impatiens. Put plainly: Olfactory conditioning of PER in bumblebees: rutin vs imidacloprid. The class given is in vivo. The protocol: One colony of the bumblebee Bombus impatiens (Koppert Inc) was kept in laboratory conditions. Bees received pollen inside the nests and foraged to a 1M sugar-water feeder outside of the nest. Bees were collected while on the feeder and iced anesthetized to then be yolked restrained in plastic pipettes. Bees were maintained in the pipettes for the entire duration of the experiment (five days).
Control: 1M sugar water (20 μL) fed twice a day for three consecutive days;
Rutin: 1 μM Rutin (Sigma-Aldrich R5143) diluted in 1M sugar water (20 μL) fed twice a day for three days before training on the fourth day;
Imid: fed with 1M sugar water (20 μL) twice a day for three days and fed with 20 μL of 5 nM Imidacloprid (Prime Source LLC, IN, USA) in 1M sugar water 2 hours before training on the fourth day; and
Rutin+Imid: Bees fed with 1 μM Rutin diluted in 1M sugar water (20 μL) for three days before training and receiving 20 μL of 5 nM Imidacloprid in 1M sugar water 2 hours before training on the fourth day.
All bees were trained using olfactory conditioning of the proboscis extension response (PER). Briefly, bees were exposed to a presentation of 1-nonanol (Sigma-Aldrich) for 10 s. After 7 s of the onset of the odor presentation, the antenna was stimulated with 1.5 M sugar-water to elicit the PER. Following the PER, the bee was allowed to drink sugar-water for 3 s. Each paired presentation was considered a training trial and each individual received eleven training trials with an average intertrial interval of 10 minutes. After training, all bees were fed 20 μL of 1M sugar water and maintained in plastic boxes for 24 h until the retention test. […] Twenty-four hours after the last training trial the bees were presented with the conditioned odor for 10 s.
Performance for each individual was quantified as the number of conditioned PER responses across the trials. Thus, for each bee a score between zero and ten (0-10) was recorded.
Multiple comparisons were then run using Wilcoxon-tests between groups using single or two-tailed t-tests depending upon predictions (bees on all treatments were predicted to perform better than bees in the Imidacloprid group). Error due to multiple comparisons was controlled using the False Discovery Rate method (FDR-two stage sharpened method). In all cases corrected p-values are presented.
Acquisition learning (i.e. learning curves) was compared between bees fed with imidacloprid vs. protected bees using Repeated measures.
Retention was quantified as a nominal variable (yes/no). Data were compared across treatments using a Chi-square test, followed by multiple comparisons between pairs of treatments. Error due to multiple comparisons was controlled using the FDR as indicated above. In all cases corrected p-values are presented.
Latency was quantified as a continuous variable between 0.5 s and 10 s. Data were compared across treatments using an ANOVA following a Log transformation to normalize the distribution (Shapiro-Wilk W Test after log transformation: W=0.99, p=0.55), followed by multiple comparisons between groups using two-tailed t-test. Error due to multiple comparisons was controlled using the FDR method as indicated above. In all cases corrected p-values are presented.

Assay [2] concerns Honey bee foragers (Apis mellifera scutellata). The assay is described as follows: Classical conditioning of PER in honey bees: rutin, kaempferol, p-coumaric acid vs fipronil. In kind it is in vivo. The method, then: Honey bee foragers (Apis mellifera scutellata) were captured from established hives at the Apiary of the Universidad del Rosario (Bogota, Colombia) between 08:00 h and 10:00 h. Bees were ice-anesthetized and harnessed in plastic tubes and maintained under laboratory conditions for the duration of the experiment (five days). Food was provided twice a day in a volumen of 10 μL and varied in composition according to experimental treatments.
Bees were randomly allocated to one of the following treatments administered twice a day for three consecutive days (all concentrations are final):
Control: 1M sucrose water (10 μL)
Rut: 1 μM rutin (Sigma-Aldrich: R5143)-1M sugar water (10 μL)
Kaemp:131 μM kaempferol (Sigma-Aldrich:K0133)+1M sugar water (10 μL)
p-Cou A: 200 μM p-coumaric acid (Sigma-Aldrich:C9008) diluted in 1M sugar water (10 μL)
Mix: 1 μM rutin, 131 μM kaempferol and 200 μM p-Coumaric acid): Bees fed with composition diluted in 1M sugar water (10 μL) fed twice a day for three days
On the fourth day, bees were randomly assigned to one of two treatments three hours before training:
Fipronil: 10 μL of 228 nM Fipronil (Astuto Invesa) in 1M sucrose water
Sucrose solution: 10 μL 1M sucrose water
Thus, bees belong to one of ten treatments: Control, Kaemp, Rut, p-Cou A, Mix, Fipro, Kaemp+Fipro, Rut+Fipro, p-Cou A+Fipro, Mix+Fipro.
Bees were trained using classical conditioning of the proboscis extension response (PER). Briefly, bees received a soft current of clean air for 15 seconds to allow bees to accommodate. Then a soft current of 1-hexanol (Sigma-Aldrich: 471402) was injected for 10 seconds. Six seconds after injection of 1-hexanol, one of the antennae was stimulated with sugar water (1.5M), which leads to the reflexive extension of the proboscis, and the bee was allowed to drink for 4 seconds. Thus, the reward and the stimulus overlapped for four seconds. This sequence, recognized as a training trial, was repeated eleven times. Time was determined using a metronome (2 Hz). Memory retention was tested 24 hours after the eleven training trials. […] 12 bees were trained each session. Training was conducted by an experimenter blind to treatment.
Learning for each individual was quantified as the number of conditioned PER responses across the trials. Thus, for each bee a learning score between zero and ten (0-10) was recorded.
Multiple comparisons were then run comparing learning score relative to Control bees using a non-parametric one or two-tailed Steel Method depending upon predictions. These comparisons informed us about the predicted impairment produced by the insecticides, the predicted innocuous effect of the flavonoid and the potential level of protection. Error due to multiple comparisons was controlled using the False Discovery Rate method (FDR-two stage sharpened method). In all cases corrected p-values (q-values) are presented.
Memory retention was quantified as a nominal variable (yes/no). Data were compared across treatments using a Chi-square test, followed by multiple comparisons of all treatments vs. Control. Error due to multiple comparisons was controlled using the FDR as indicated above. In all cases corrected p-values (q values) are presented.
Latency was quantified as a continuous variable between 0.5 s and 10 s. Data were compared across treatments using an ANOVA following a Log transformation to normalize the distribution (Shapiro-Wilk W Test after log transformation: p>0.05 for all treatments for the null hypothesis that data is from a normal distribution), followed by multiple comparisons between all treatments and the Control group (Dunnett's method). Error due to multiple comparisons was controlled using the FDR method as indicated above. In all cases corrected p-values (q-values) are presented.

Molecules are shown by their SMILES.

On to `O=[N+]([O-])NC1=NCCN1Cc1ccc(Cl)nc1` [Imidacloprid], for which the “learning across trials relative to Rutin+Imidacloprid bees” value in assay [1] (acquisition curves, repeated measures MANOVA) is reported as “significantly lower”. Further, in assay [1] (bumblebees), the “latency of response relative to Control bees” value was “significantly longer”, the “latency of response relative to bees fed with Rutin” value is on record as “significantly longer”, the “latency of response relative to bees prophylactically fed with Rutin” value is listed as “not different” and the “memory retention after 24 h relative to Control group” value was “significantly lower”. Moreover, in assay [1] (bumblebees), the “memory retention after 24 h relative to Rutin group” value is on record as “significantly lower” and the “memory retention after 24 h relative to Rutin+Imidacloprid group” value is on record as “significantly lower”. Further, the “performance score relative to Control bees” value in assay [1] (bumblebees, score 0-10, rutin 1 μM twice a day for three days, imidacloprid 5 nM 20 μL 2 hours before training) was “significantly lower”.

As to `C[C@@H]1O[C@@H](OC[C@H]2O[C@@H](Oc3c(-c4ccc(O)c(O)c4)oc4cc(O)cc(O)c4c3=O)[C@H](O)[C@@H](O)[C@@H]2O)[C@H](O)[C@H](O)[C@H]1O` [Rutin], the “latency of response relative to Control bees” value in assay [2] (Dunnett's method) was “not significantly different from Control”. In assay [2] (honey bees, score 0-10, 1 μM rutin, 131 μM kaempferol, 200 μM p-coumaric acid or Mix twice a day for three days, 228 nM fipronil 10 μL three hours before training), the “learning score relative to Control bees” value was “not significantly different from Control bees”.

The values are drawn from US20220339178A1, “COMPOSITIONS AND METHODS FOR COGNITIVE PROTECTION OF POLLINATORS AGAINST PESTICIDES” (priority 2019, published 2022).
